# According to PMC3741113, “De-Novo Design of Antimicrobial Peptides for Plant Protection” (PLoS ONE, 2013):
# Ends that are not written are not given here.
# Test system: Clavibacter michiganensis ssp. michiganensis
# Settings: Table 4, incubation period 2d; LB-medium, 27°C
row,Substance,MIC
1,KRRILIRILKLIIKLILKKR-NH2 [SP13-5],2.5 µg/mL
2,LRFLKKILKKLF-NH2 [SP10-1],1.0 µg/mL
3,KRRLILRILRLAIRALVKKR-NH2 [SP13-2],0.25 µg/mL
4,KRRKLAFRLFRLFLKLVLKK-NH2 [SP13-14],0.5 µg/mL
5,RKKKVKLLKRLV-NH2 [SP1-3],>10 µg/mL
6,RKKRLKVVKRLV-NH2 [SP1-4],>10 µg/mL
7,KRRLIARILRLAIRALVKKR-NH2 [SP13-1],0.5 µg/mL
8,RKKKFKIFKRLF-NH2 [SP1-14],1.0 µg/mL
9,RKKRKKLLKRLI-NH2 [SP1-20],5.0 µg/mL
10,KRKKLLKRLI-NH2 [SP1-16],>10 µg/mL
11,LRILRRLLRRLF-NH2 [SP10-7],5.0 µg/mL
12,KRRLALFRAFRLALKSVLKK-NH2 [SP13-10],0.1 µg/mL
13,RKKKLKIIKRLI-NH2 [SP1-7],2.5 µg/mL
14,RKKRLRVVRRLV-NH2 [SP1-5],>10 µg/mL
15,RKKRVKLLKRLV-NH2 [SP1-2],10 µg/mL
16,RKKRKKLLKRLL-NH2 [SP1-18],5.0 µg/mL
17,KKKKKKIIKKII-NH2 [SP1-22],>10 µg/mL
18,LRIIRRILRRLI-NH2 [SP10-6],2.5 µg/mL
19,KRRKAIKILKLIAKLIRKKR-NH2 [SP13-8],0.1 µg/mL
20,LRFLRRILRRLL-NH2 [SP10-8],0.5 µg/mL
21,KRRLILRILRLAIRILVKKR-NH2 [SP13-3],2.5 µg/mL
22,KRRLFLFRLFRLFLRLFLKK-NH2 [SP13-12],2.5 µg/mL

# Test system: Pectobacterium carotovorum ssp. carotovorum
# Settings: Table 4, incubation period 1d; LB-medium, 27°C
row,Substance,MIC
1,KRRILIRILKLIIKLILKKR-NH2 [SP13-5],>10 µg/mL
2,LRFLKKILKKLF-NH2 [SP10-1],2.5 µg/mL
3,KRRLILRILRLAIRALVKKR-NH2 [SP13-2],>10 µg/mL
4,KRRKLAFRLFRLFLKLVLKK-NH2 [SP13-14],>10 µg/mL
5,RKKKVKLLKRLV-NH2 [SP1-3],>10 µg/mL
6,RKKRLKVVKRLV-NH2 [SP1-4],>10 µg/mL
7,KRRLIARILRLAIRALVKKR-NH2 [SP13-1],>10 µg/mL
8,RKKKFKIFKRLF-NH2 [SP1-14],>10 µg/mL
9,RKKRKKLLKRLI-NH2 [SP1-20],>10 µg/mL
10,KRKKLLKRLI-NH2 [SP1-16],>10 µg/mL
11,LRILRRLLRRLF-NH2 [SP10-7],>10 µg/mL
12,KRRLALFRAFRLALKSVLKK-NH2 [SP13-10],>10 µg/mL
13,RKKKLKIIKRLI-NH2 [SP1-7],>10 µg/mL
14,RKKRLRVVRRLV-NH2 [SP1-5],>10 µg/mL
15,RKKRVKLLKRLV-NH2 [SP1-2],>10 µg/mL
16,RKKRKKLLKRLL-NH2 [SP1-18],>10 µg/mL
17,KKKKKKIIKKII-NH2 [SP1-22],>10 µg/mL
18,LRIIRRILRRLI-NH2 [SP10-6],2.5 µg/mL
19,KRRKAIKILKLIAKLIRKKR-NH2 [SP13-8],>10 µg/mL
20,LRFLRRILRRLL-NH2 [SP10-8],2.5 µg/mL
21,KRRLILRILRLAIRILVKKR-NH2 [SP13-3],>10 µg/mL
22,KRRLFLFRLFRLFLRLFLKK-NH2 [SP13-12],>10 µg/mL

# Test system: Xanthomonas vesicatoria
# Settings: Table 4, incubation period 2d; LB-medium, 27°C
row,Substance,MIC
1,KRRILIRILKLIIKLILKKR-NH2 [SP13-5],1.0 µg/mL
2,LRFLKKILKKLF-NH2 [SP10-1],2.5 µg/mL
3,KRRLILRILRLAIRALVKKR-NH2 [SP13-2],0.25 µg/mL
4,KRRKLAFRLFRLFLKLVLKK-NH2 [SP13-14],0.25 µg/mL
5,RKKKVKLLKRLV-NH2 [SP1-3],>10 µg/mL
6,RKKRLKVVKRLV-NH2 [SP1-4],>10 µg/mL
7,KRRLIARILRLAIRALVKKR-NH2 [SP13-1],0.5 µg/mL
8,RKKKFKIFKRLF-NH2 [SP1-14],1.0 µg/mL
9,RKKRKKLLKRLI-NH2 [SP1-20],10 µg/mL
10,KRKKLLKRLI-NH2 [SP1-16],10 µg/mL
11,LRILRRLLRRLF-NH2 [SP10-7],5.0 µg/mL
12,KRRLALFRAFRLALKSVLKK-NH2 [SP13-10],0.1 µg/mL
13,RKKKLKIIKRLI-NH2 [SP1-7],1.0 µg/mL
14,RKKRLRVVRRLV-NH2 [SP1-5],>10 µg/mL
15,RKKRVKLLKRLV-NH2 [SP1-2],5.0 µg/mL
16,RKKRKKLLKRLL-NH2 [SP1-18],5.0 µg/mL
17,KKKKKKIIKKII-NH2 [SP1-22],>10 µg/mL
18,LRIIRRILRRLI-NH2 [SP10-6],1.0 µg/mL
19,KRRKAIKILKLIAKLIRKKR-NH2 [SP13-8],0.1 µg/mL
20,LRFLRRILRRLL-NH2 [SP10-8],0.5 µg/mL
21,KRRLILRILRLAIRILVKKR-NH2 [SP13-3],2.5 µg/mL
22,KRRLFLFRLFRLFLRLFLKK-NH2 [SP13-12],2.5 µg/mL

# Test system: Pseudomonas syringae pv. tomato
# Settings: Table 4, incubation period 1d; LB-medium, 27°C
row,Substance,MIC
1,KRRILIRILKLIIKLILKKR-NH2 [SP13-5],2.5 µg/mL
2,LRFLKKILKKLF-NH2 [SP10-1],1.0 µg/mL
3,KRRLILRILRLAIRALVKKR-NH2 [SP13-2],10 µg/mL
4,KRRKLAFRLFRLFLKLVLKK-NH2 [SP13-14],2.5 µg/mL
5,RKKKVKLLKRLV-NH2 [SP1-3],5.0 µg/mL
6,RKKRLKVVKRLV-NH2 [SP1-4],2.5 µg/mL
7,KRRLIARILRLAIRALVKKR-NH2 [SP13-1],1.0 µg/mL
8,RKKKFKIFKRLF-NH2 [SP1-14],1.0 µg/mL
9,RKKRKKLLKRLI-NH2 [SP1-20],10 µg/mL
10,KRKKLLKRLI-NH2 [SP1-16],1.0 µg/mL
11,LRILRRLLRRLF-NH2 [SP10-7],1.0 µg/mL
12,KRRLALFRAFRLALKSVLKK-NH2 [SP13-10],1.0 µg/mL
13,RKKRLRVVRRLV-NH2 [SP1-5],1.0 µg/mL
14,RKKRVKLLKRLV-NH2 [SP1-2],5.0 µg/mL
15,RKKRKKLLKRLL-NH2 [SP1-18],1.0 µg/mL
16,KKKKKKIIKKII-NH2 [SP1-22],1.0 µg/mL
17,LRIIRRILRRLI-NH2 [SP10-6],1.0 µg/mL
18,KRRKAIKILKLIAKLIRKKR-NH2 [SP13-8],10 µg/mL
19,LRFLRRILRRLL-NH2 [SP10-8],1.0 µg/mL
20,KRRLILRILRLAIRILVKKR-NH2 [SP13-3],10 µg/mL
21,KRRLFLFRLFRLFLRLFLKK-NH2 [SP13-12],5.0 µg/mL

# Test system: Pseudomonas syringae pv. syringae
# Settings: Table 4, incubation period 1d; LB-medium, 27°C
row,Substance,MIC
1,KRRILIRILKLIIKLILKKR-NH2 [SP13-5],>10 µg/mL
2,LRFLKKILKKLF-NH2 [SP10-1],2.5 µg/mL
3,KRRLILRILRLAIRALVKKR-NH2 [SP13-2],5.0 µg/mL
4,KRRKLAFRLFRLFLKLVLKK-NH2 [SP13-14],5.0 µg/mL
5,RKKKVKLLKRLV-NH2 [SP1-3],0.25 µg/mL
6,RKKRLKVVKRLV-NH2 [SP1-4],5.0 µg/mL
7,KRRLIARILRLAIRALVKKR-NH2 [SP13-1],1.0 µg/mL
8,RKKKFKIFKRLF-NH2 [SP1-14],<0.1 µg/mL
9,RKKRKKLLKRLI-NH2 [SP1-20],0.25 µg/mL
10,KRKKLLKRLI-NH2 [SP1-16],0.1 µg/mL
11,LRILRRLLRRLF-NH2 [SP10-7],>10 µg/mL
12,KRRLALFRAFRLALKSVLKK-NH2 [SP13-10],>10 µg/mL
13,RKKKLKIIKRLI-NH2 [SP1-7],0.1 µg/mL
14,RKKRLRVVRRLV-NH2 [SP1-5],>10 µg/mL
15,RKKRVKLLKRLV-NH2 [SP1-2],2.5 µg/mL
16,RKKRKKLLKRLL-NH2 [SP1-18],0.1 µg/mL
17,KKKKKKIIKKII-NH2 [SP1-22],2.5 µg/mL
18,LRIIRRILRRLI-NH2 [SP10-6],2.5 µg/mL
19,KRRKAIKILKLIAKLIRKKR-NH2 [SP13-8],>10 µg/mL
20,LRFLRRILRRLL-NH2 [SP10-8],0.5 µg/mL
21,KRRLILRILRLAIRILVKKR-NH2 [SP13-3],>10 µg/mL
22,KRRLFLFRLFRLFLRLFLKK-NH2 [SP13-12],>10 µg/mL

# Test system: Pseudomonas corrugata
# Settings: Table 4, incubation period 2d; LB-medium, 27°C
row,Substance,MIC
1,KRRILIRILKLIIKLILKKR-NH2 [SP13-5],10 µg/mL
2,LRFLKKILKKLF-NH2 [SP10-1],2.5 µg/mL
3,KRRLILRILRLAIRALVKKR-NH2 [SP13-2],5.0 µg/mL
4,KRRKLAFRLFRLFLKLVLKK-NH2 [SP13-14],2.5 µg/mL
5,RKKKVKLLKRLV-NH2 [SP1-3],2.5 µg/mL
6,RKKRLKVVKRLV-NH2 [SP1-4],>10 µg/mL
7,KRRLIARILRLAIRALVKKR-NH2 [SP13-1],2.5 µg/mL
8,RKKKFKIFKRLF-NH2 [SP1-14],0.5 µg/mL
9,RKKRKKLLKRLI-NH2 [SP1-20],0.5 µg/mL
10,KRKKLLKRLI-NH2 [SP1-16],0.5 µg/mL
11,LRILRRLLRRLF-NH2 [SP10-7],2.5 µg/mL
12,KRRLALFRAFRLALKSVLKK-NH2 [SP13-10],0.25 µg/mL
13,RKKKLKIIKRLI-NH2 [SP1-7],0.5 µg/mL
14,RKKRLRVVRRLV-NH2 [SP1-5],5.0 µg/mL
15,RKKRVKLLKRLV-NH2 [SP1-2],0.5 µg/mL
16,RKKRKKLLKRLL-NH2 [SP1-18],0.25 µg/mL
17,KKKKKKIIKKII-NH2 [SP1-22],>10 µg/mL
18,LRIIRRILRRLI-NH2 [SP10-6],2.5 µg/mL
19,KRRKAIKILKLIAKLIRKKR-NH2 [SP13-8],0.25 µg/mL
20,LRFLRRILRRLL-NH2 [SP10-8],0.5 µg/mL
21,KRRLILRILRLAIRILVKKR-NH2 [SP13-3],>10 µg/mL
22,KRRLFLFRLFRLFLRLFLKK-NH2 [SP13-12],10 µg/mL
